One test has as its system KPL-4. As to the kind of experiment: CELLTITER GLO cell proliferation assay (Example 6). In kind it is cell-based. The note with it: data in parenthesis = repeat evaluations, read-out: IC50 potency KPL-4. Put shortly: (§1)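 Cells seeded at about 8000 (WSU-DLCL2) or 4000 (KPL-4) per well in RPMI-1640 with 10% FBS, 2 mM glutamine, 50 uM cystine and 0.015 g/L L-methionine; 10-point 1:3 dose-response in triplicate, cultured at 37° C., 5% CO2. Viability read by CellTiter-Glo luminescence, normalized to no-compound minus no-cell controls.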
On the technique in general: Cellular ATP, detected with luciferase, serves as a proxy for viable cell number.

Another test relates to WSU-DLCL2. As to the kind of experiment: CELLTITER GLO cell proliferation assay (Example 6). In kind it is cell-based. The note with it: data in parenthesis = repeat evaluations, read-out: IC50 potency WSU-DLCL2. Put shortly: as §1
Another test deals with SK-BR-3. As to the kind of experiment: CellTiter-Glo toxicity, 3 days (Example 7). In kind it is cell-based. The conditions noted are these: Homo sapiens, SK-BR-3, 72 h; 3 days; read-out: SK-BR-3 IC50. Here is the method:
The toxicity of PBD monomer disulfide prodrugs 1 to 4, PBD dimer disulfide prodrugs 1 and 4, PBD monomer control 1 and PBD dimer control 1 were evaluated against SK-BR-3 cell cultures. […] The HER2-positive breast cancer cell line, SK-BR-3, was obtained internally at Genentech after having been verified by sequence analysis. The cells were grown at 37 Celsius in DMEM+10% FBS supplemented with 2 mM L-glutamine for the duration of this assay. On the first day of the experiment, designated “Day −1”, SK-BR-3 cells were harvested from tissue culture flasks, counted, and then seeded into 96-well plates at a concentration of 7,500 cells per well. The next day, designated “Day 0”, cell culture media was removed from the cells and replaced with 100 uL of fresh media containing a serial dilution (1:3) of the compounds in Table 5 below. The plates were then returned to the 37 Celsius incubator and allowed to incubate for 3 days. On “Day 3” of the assay, the plates were removed from the incubator and allowed to equilibrate to room temperature before adding 100 uL of room-temperature CellTiter-Glo reagent (Promega). The plates were then agitated at 300 rpm for 10 minutes. The luminescence signal generated from this reaction was recorded on an Envision plate reader (Perkin-Elmer). The data were arranged in Excel (Microsoft) and graphed in Kaleidagraph (Synergy Software).

The subject of a further test is KPL-4 Cell line. The experiment in a line: Cell viability, DTD-activated quinone prodrugs (Example 15). In kind it is cell-based. The conditions noted are these: KPL4; KPL-4 Cell line (high DTD); Table 10; read-out: IC50 Potency. As for the experimental part: (§2) The toxicity of PBD dimer diaphorase prodrug 1, PBD monomer diaphorase prodrug 2, PBD dimer control 1 and PBD monomer control 1 were evaluated against KPL-4 and WSU cell lines for cell viability. The KPL-4 cell line is was a high DTD cell line characterized by NQO1 nRPKM of 839 and the WSU cell line was a low DTD cell line characterized by a NQO1 nRPKM of 1.36. The IC50 ratios are based on the prodrug IC50 value relative to the PBD dimer control.

For the next test, the system named is WSU Cell line. Described as above. In kind it is cell-based. The conditions noted are these: WSU Cell line (low DTD); Table 10; read-out: IC50 Potency. As for the experimental part: as §2
The test system of test [1] is double strand DNA Oligos 1 and 2. The experiment in a line: DNA oligo binding, LC/MS/UV. The note with it: 100 uM compound, 100 uM DNA, 1 hour, 37 C. Here is the method: For DNA binding determination, the compounds were incubated at 100 μM with 100 μM double strand DNA Oligos 1 and 2 for 1 hour in 10 mM Bis-Tris, pH 7.1 at 37° C. The single strand DNA Oligos (5′-TATAGAATCTATA-3′ and 3′-ATATCTTAGATAT-5′) were synthesized at Genentech. The samples were analyzed by LC/MS/UV (210-450 nm) on Sciex TripleTOF 5600 on a Hypersil Gold C18 column (100×2.1, 1.9 Thermo Scientific). The column was eluted at 0.4 mL/min by a gradient of buffer A (50 mM hexafluoro-isopropanol and 15 mM diisopropylethylamine) to buffer B (50% A and 50% of 1:1 methanol:acetonitrile), 5% 0-0.5 min, 5-25% B 0.5-25 min, 25-95% B 25-40 min, and to 95% B 40-42 min. The % remaining was an average of the starting DNA oligos remaining in incubations (n=2). The products were characterized by LC/MS in a negative ESI ion mode.

Read-outs that look alike come from different tables or passages of the source.

For `C=C1C[C@H]2C=Nc3cc(OC)c(OC)cc3C(=O)N2C1` [PBD monomer control 1, reference compound], the IC50 – broadly, the point on the concentration scale where inhibition reaches its midpoint – in the test on KPL-4 (KPL4, Table 4) amounted to 330 nM; in the test on KPL-4 (Table 4) it was 241 nM; with WSU-DLCL2 (Homo sapiens, WSUDLCL2, Table 4) it was 106 nM; in the test with WSU-DLCL2 (Table 4), 109 nM; in the test on SK-BR-3 it was 124 nM; with KPL-4 Cell line, 330 nM. In addition, the IC50 in the test on WSU Cell line amounted to 106 nM. For the same molecule, the “% DNA oligo remaining” value in test [1] amounted to 35%.

(Values after patent US11576979B2, “Pyrrolobenzodiazepine prodrugs and antibody conjugates thereof” (GENENTECH, INC., priority 2016, dated 2023).)
